The target of data set [1] is T1, Protein deacetylase HDAC6 (Homo sapiens) (UniProt Q9UBN7).
T1 sequence (whole entry): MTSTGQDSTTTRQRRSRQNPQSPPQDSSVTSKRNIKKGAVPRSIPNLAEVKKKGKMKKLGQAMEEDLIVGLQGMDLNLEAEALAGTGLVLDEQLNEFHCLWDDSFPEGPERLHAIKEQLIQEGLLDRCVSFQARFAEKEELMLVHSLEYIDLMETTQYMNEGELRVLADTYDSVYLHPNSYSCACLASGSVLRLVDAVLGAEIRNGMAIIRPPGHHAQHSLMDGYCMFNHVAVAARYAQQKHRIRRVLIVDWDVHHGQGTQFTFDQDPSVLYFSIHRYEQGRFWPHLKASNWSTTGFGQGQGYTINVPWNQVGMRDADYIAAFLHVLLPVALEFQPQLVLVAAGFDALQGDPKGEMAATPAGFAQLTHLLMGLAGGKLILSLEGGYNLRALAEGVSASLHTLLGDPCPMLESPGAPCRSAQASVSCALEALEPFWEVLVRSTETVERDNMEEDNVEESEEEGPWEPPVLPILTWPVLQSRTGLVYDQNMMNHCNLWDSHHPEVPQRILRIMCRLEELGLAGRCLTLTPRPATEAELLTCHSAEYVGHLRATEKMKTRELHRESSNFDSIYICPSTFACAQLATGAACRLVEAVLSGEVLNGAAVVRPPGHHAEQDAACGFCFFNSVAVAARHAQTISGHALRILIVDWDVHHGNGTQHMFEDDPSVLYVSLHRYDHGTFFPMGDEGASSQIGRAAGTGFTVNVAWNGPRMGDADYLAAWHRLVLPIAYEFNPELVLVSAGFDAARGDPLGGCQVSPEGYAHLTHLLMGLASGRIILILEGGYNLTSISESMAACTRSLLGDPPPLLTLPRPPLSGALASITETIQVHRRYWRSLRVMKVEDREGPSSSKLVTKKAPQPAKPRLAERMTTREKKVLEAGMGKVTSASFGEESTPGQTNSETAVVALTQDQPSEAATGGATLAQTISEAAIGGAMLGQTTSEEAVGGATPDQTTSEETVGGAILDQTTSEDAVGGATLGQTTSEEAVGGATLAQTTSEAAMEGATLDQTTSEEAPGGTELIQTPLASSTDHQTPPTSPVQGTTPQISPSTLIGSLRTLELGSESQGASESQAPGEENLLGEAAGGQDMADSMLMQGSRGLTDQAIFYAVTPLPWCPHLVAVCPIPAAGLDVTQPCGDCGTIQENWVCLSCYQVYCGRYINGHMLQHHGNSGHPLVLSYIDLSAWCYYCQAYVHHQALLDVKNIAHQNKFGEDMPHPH
Nature of the data set: Inhibition of HDAC6 in human RPMI-8226 cells assessed as increase in acetylated histone H3 level at 0.25 to 1 uM incubated for 24 hrs by western blot analysis. The settings on record: dose 0.25-1 µM. Format: cell-based.

The target of data set [2] is Histone deacetylase 1 (Homo sapiens) (UniProt Q13547). Nature of the data set: Inhibition of HDAC1 (unknown origin) at 1 uM incubated for 30 mins by fluorometric analysis.
Histone deacetylase 1 (Homo sapiens), sequence (Q13547 whole entry): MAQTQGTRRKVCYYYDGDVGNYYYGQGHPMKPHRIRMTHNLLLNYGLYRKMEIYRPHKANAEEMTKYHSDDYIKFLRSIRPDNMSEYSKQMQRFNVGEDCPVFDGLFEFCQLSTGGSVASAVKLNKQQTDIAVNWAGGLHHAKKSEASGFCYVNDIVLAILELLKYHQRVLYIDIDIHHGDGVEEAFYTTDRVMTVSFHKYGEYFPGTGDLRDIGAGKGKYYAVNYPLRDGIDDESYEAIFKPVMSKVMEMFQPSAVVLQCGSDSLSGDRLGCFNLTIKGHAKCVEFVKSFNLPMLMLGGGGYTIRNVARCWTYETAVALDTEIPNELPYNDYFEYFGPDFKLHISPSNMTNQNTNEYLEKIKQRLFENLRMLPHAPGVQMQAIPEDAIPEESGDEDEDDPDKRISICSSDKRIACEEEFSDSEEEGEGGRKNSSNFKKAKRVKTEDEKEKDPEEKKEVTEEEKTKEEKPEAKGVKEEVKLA
Data set [3] deals with Mus musculus. Nature of the data set: Anti-pulmonary fibrosis activity in bleomycin-induced idiopathic pulmonary fibrosis C57BL/6J mouse model assessed as decrease in collagen I protein expression in lung at 25 mg/kg, ig administered daily via gavage measured after 14 days by western blot analysis. The class given is functional, organism-based. The settings on record: time 14.0 day. (In general: In western blotting, separated proteins are transferred to a membrane and probed.)

Data set [4] addresses T2, Histone deacetylase 8 (Homo sapiens) (UniProt Q9BY41).
T2 sequence (whole entry): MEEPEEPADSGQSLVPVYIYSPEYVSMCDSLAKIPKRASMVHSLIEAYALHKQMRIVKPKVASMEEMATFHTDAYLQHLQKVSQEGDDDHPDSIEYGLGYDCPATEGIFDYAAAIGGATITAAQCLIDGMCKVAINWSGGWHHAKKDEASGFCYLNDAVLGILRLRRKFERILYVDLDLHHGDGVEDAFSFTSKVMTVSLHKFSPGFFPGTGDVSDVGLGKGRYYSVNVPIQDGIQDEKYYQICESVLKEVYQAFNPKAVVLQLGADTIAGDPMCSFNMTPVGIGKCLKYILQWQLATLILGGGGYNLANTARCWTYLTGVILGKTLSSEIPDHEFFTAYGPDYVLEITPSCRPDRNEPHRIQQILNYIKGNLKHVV
The data set is described as follows: Inhibition of HDAC8 (unknown origin) at 1 uM incubated for 30 mins by fluorometric analysis.

Data set [5] relates to Mus musculus. Nature of the data set: Anti-pulmonary fibrosis activity in bleomycin-induced idiopathic pulmonary fibrosis C57BL/6J mouse model assessed as decrease in weight loss at 50 mg/kg, ig administered daily via gavage and measured for 14 days. Format: functional, organism-based. The settings on record: time 14.0 day.
Data set [6] has as its target T1, Protein deacetylase HDAC6 (Homo sapiens). The data set is described as follows: Inhibition of HDAC6 (unknown origin) at 1 uM incubated for 30 mins by fluorometric analysis.
In data set [7] the test system is Mus musculus. The data set is described as follows: Anti-pulmonary fibrosis activity in bleomycin-induced idiopathic pulmonary fibrosis C57BL/6J mouse model assessed as decrease in lung damage by measuring decrease in inflammatory cell infiltration in lung at 25 to 50 mg/kg, ig administered daily via gavage and measured on day 14 by Hematoxylin-Eosin staining based analysis. The class given is functional, organism-based. The settings on record: dose 25-50 mg/kg, time 14.0 day.

Another data set deals with RPMI-8226. Nature of the data set: Antiproliferative activity against human RPMI-8226 cells assessed as inhibition of cell growth incubated for 24 to 48 hrs by CCK8 assay. The class given is functional, cell-based. (Formazan colour is commonly taken as a measure of viable cells.)
Data set [8] is described as follows: Toxicity against silicosis C57BL/6J mouse model assessed as effect on liver morphological changes at 50 mg/kg, ig administered daily via gavage and measured on day 28 by Hematoxylin-Eosin staining based analysis. Format: organism-based. The settings on record: in vivo, po, 672 h, time 28 day.

The source made the active and inactive calls. No cut-off for these calls is given here.

For the molecule `O=C(NO)c1ccc(CN2C(=O)C3=C(CCN(Cc4cccc(Cl)c4)C3)N3CCN=C23)cc1`, the inhibition (usually the share of the control response that was lost under treatment) was “Active; Less Affected” in data set [1], 56.1% in data set [2], 76.2% in [4] and 94.8% in data set [6]. Further, the Activity result in the data set with Mus musculus [3] is given as “Active; Superior Activity Compared To Positive Drug, Acy-1215”; in data set [8], “Non-toxic”. Further, the outcome in the data set on Mus musculus [5] and with Mus musculus [7] was Active. For the same molecule, in the data set on RPMI-8226, the IC50 – broadly, the concentration that inhibits the measured activity by half – came to 440 nM.

The record behind these values is ChEMBL document CHEMBL6092154, “Design, synthesis, and evaluation of a novel TRAIL-activated HDAC6 inhibitor for the treatment of pulmonary fibrosis” (Bioorg Med Chem, 2024).
